Oligonucleotides are written 5' to 3', each unit as a sugar letter and its base; * is a phosphorothioate linkage, no mark a phosphodiester; rarer units and linkages stand in square brackets, end groups in braces. Plain capitals give the bases only. e = 2'-O-(2-methoxyethyl) (MOE); l = locked nucleic acid (LNA); [5mC] = 5-methylcytosine
Test system: mGrn mRNA
Assay: mGrn mRNA qPCR in Neuro2a cells transfected with ASOs
Type: cell-based, mouse
Conditions: for 40 nM FC (mGrn mRNA) / 80 nM FC (mGrn mRNA) / 160 nM FC (mGrn mRNA): transfection; for mGRN mRNA FC: Table 14, 100 nM, 48 hours, normalized to sNTC3
Procedure: 57 ASOs targeting the Grn promoter (− strand) were screened in Neuro2a cells. Neuro2a cells were transfected with 100 nM of each of the ASOs listed in Table 14 and cells were harvested 48 hours later for Grn mRNA quantification using qPCR. Housekeeping genes for normalization were Gapdh and Ppia. Relative Grn mRNA levels were normalized to mRNA extracted from cells treated with sNTC3 (steric nontargeting control).
Next, 26 ASOs based on parent ASOs CO-3544 and CO-3595 were designed with different modifications and base walking. Neuro2a cells were transfected with either […] or 160 nM of each of the ASOs listed in Table 15, and cells were harvested 48 hours later for mGrn mRNA quantification using qPCR. As controls, cells were treated with sNTC3 or no ASO. Housekeeping genes for normalization were Gapdh and Ppia. Relative Grn mRNA levels were normalized to mRNA extracted from cells treated with sNTC3.
CO-3544 was modified to include PO/PS bonds and the efficacy in upregulating mGrn mRNA was determined.
Similarly, CO-3595 was modified to include varying PO/PS internucleotide bonds and the efficacy of these ASOs in upregulating mGrn mRNA was determined in Neuro2A cells.

CO-5304: CO-3595 modified to include varying PO/PS internucleotide bonds (antisense e[5mC]*e[5mC]*eT*eG*eAeAe[5mC]eTeGeTeAeTeGeGe[5mC]eTeG*eA*e[5mC]*e[5mC])
40 nM FC (mGrn mRNA) (Table 16, Neuro2A): 1.4 FC
80 nM FC (mGrn mRNA) (Table 16, Neuro2A): 1.6 FC
160 nM FC (mGrn mRNA) (Table 16, Neuro2A): 2.2 FC

CO-5309: CO-3595 modified to include varying PO/PS internucleotide bonds (antisense e[5mC]*e[5mC]*eTeGeAeAe[5mC]eTeGeTeAeTeGeGe[5mC]eT*eG*eA*e[5mC]*e[5mC])
40 nM FC (mGrn mRNA) (Table 16, Neuro2A): 1.3 FC
80 nM FC (mGrn mRNA) (Table 16, Neuro2A): 1.7 FC
160 nM FC (mGrn mRNA) (Table 16, Neuro2A): 2.0 FC

CO-3584: ASO targeting the Grn promoter (− strand) (antisense eG*e[5mC]*eT*eT*e[5mC]*eA*eA*eT*eT*eT*eA*eA*eT*eG*e[5mC]*eA*eG*eT*eG*e[5mC])
mGRN mRNA FC (Neuro2a): 1.1 FC

CO-5291: CO-3544 modified to include PO/PS bonds (antisense eG*eT*eT*e[5mC]*eTe[5mC]e[5mC]e[5mC]eTeAeGe[5mC]eTeGeTeGeT*eA*eG*eT)
40 nM FC (mGrn mRNA) (Table 15, Neuro2a): 0.9 FC
80 nM FC (mGrn mRNA) (Table 15, Neuro2a): 1.0 FC
160 nM FC (mGrn mRNA) (Table 15, Neuro2a): 0.9 FC

CO-3575: ASO targeting the Grn promoter (− strand) (antisense eG*eT*eA*eA*eA*e[5mC]*eG*eA*e[5mC]*e[5mC]*eT*eT*eG*eA*eA*e[5mC]*eG*e[5mC]*eG*eT)
mGRN mRNA FC (Neuro2a): 1.2 FC

CO-5307: CO-3595 modified to include varying PO/PS internucleotide bonds (antisense e[5mC]*e[5mC]*eT*eG*eA*eA*e[5mC]*eT*eG*eT*eAeTeGeGe[5mC]eTeG*eA*e[5mC]*e[5mC])
40 nM FC (mGrn mRNA) (Table 16, Neuro2A): 1.0 FC
80 nM FC (mGrn mRNA) (Table 16, Neuro2A): 1.1 FC
160 nM FC (mGrn mRNA) (Table 16, Neuro2A): 1.1 FC

CO-5300: CO-3544 modified to include PO/PS bonds (antisense eG*eT*eTe[5mC]eTe[5mC]e[5mC]e[5mC]*eT*eA*eG*e[5mC]*eT*eG*eT*eG*eT*eA*eG*eT)
40 nM FC (mGrn mRNA) (Table 15, Neuro2a): 1.3 FC
80 nM FC (mGrn mRNA) (Table 15, Neuro2a): 1.4 FC
160 nM FC (mGrn mRNA) (Table 15, Neuro2a): 1.4 FC

CO-3560: ASO targeting the Grn promoter (− strand) (antisense eT*eG*eA*eT*eG*e[5mC]*eA*e[5mC]*eT*eA*eA*e[5mC]*eG*eA*eG*eG*eT*eT*eG*eT)
mGRN mRNA FC (Neuro2a): 1.2 FC

CO-3554: ASO targeting the Grn promoter (− strand) (antisense eG*eG*e[5mC]*eT*e[5mC]*eT*eT*eT*e[5mC]*eT*e[5mC]*eT*eT*eT*e[5mC]*eG*eG*eA*e[5mC]*eG)
mGRN mRNA FC (Neuro2a): 1.2 FC

CO-3591: ASO targeting the Grn promoter (− strand) (antisense e[5mC]*e[5mC]*eA*e[5mC]*e[5mC]*eA*eG*e[5mC]*e[5mC]*eT*eA*e[5mC]*eT*e[5mC]*e[5mC]*eA*e[5mC]*eA*eG*eG)
mGRN mRNA FC (Neuro2a): 1.4 FC

CO-3599: ASO targeting the Grn promoter (− strand) (antisense eA*eT*eG*eA*eT*eG*e[5mC]*eA*e[5mC]*e[5mC]*eA*eG*eT*e[5mC]*eT*eT*eA*e[5mC]*eA*e[5mC])
mGRN mRNA FC (Neuro2a): 1.0 FC

CO-5302: CO-3544 modified to include PO/PS bonds (antisense lG*lT*eT*l[5mC]*eT*l[5mC]*e[5mC]*l[5mC]*eT*lA*eG*l[5mC]*eT*lG*eT*lG*lT*eA*lG*lT)
40 nM FC (mGrn mRNA) (Table 15, Neuro2a): 1.3 FC
80 nM FC (mGrn mRNA) (Table 15, Neuro2a): 1.2 FC
160 nM FC (mGrn mRNA) (Table 15, Neuro2a): 1.0 FC

CO-3569: ASO targeting the Grn promoter (− strand) (antisense eG*eG*eA*eA*eT*eG*eT*eG*eA*eA*e[5mC]*eT*eG*eA*eG*eT*eA*eG*eA*eA)
mGRN mRNA FC (Neuro2a): 1.2 FC

CO-4083: ASO based on parent ASOs CO-3544 and CO-3595, different modifications and base walking (antisense e[5mC]*e[5mC]*eT*eG*eA*lA*e[5mC]*eT*lG*eT*eA*lT*eG*eG*l[5mC]*eT*eG*eA*e[5mC]*e[5mC])
40 nM FC (mGrn mRNA) (Table 16, Neuro2A): 1.3 FC
80 nM FC (mGrn mRNA) (Table 16, Neuro2A): 1.4 FC
160 nM FC (mGrn mRNA) (Table 16, Neuro2A): 1.6 FC

CO-3561: ASO targeting the Grn promoter (− strand) (antisense e[5mC]*e[5mC]*eT*e[5mC]*eT*eT*eG*eA*eA*eA*e[5mC]*eT*e[5mC]*e[5mC]*e[5mC]*e[5mC]*eT*eA*eGeG)
mGRN mRNA FC (Neuro2a): 1.3 FC

CO-3558: ASO targeting the Grn promoter (− strand) (antisense eT*e[5mC]*e[5mC]*e[5mC]*e[5mC]*e[5mC]*e[5mC]*e[5mC]*eA*eA*eT*eA*eA*eG*eA*eG*eG*e[5mC]*eT*eT)
mGRN mRNA FC (Neuro2a): 1.2 FC

CO-5292: CO-3544 modified to include PO/PS bonds (antisense eG*eT*eT*e[5mC]*eT*e[5mC]*e[5mC]e[5mC]eTeAeGe[5mC]eTeGeTeGeT*eA*eG*eT)
40 nM FC (mGrn mRNA) (Table 15, Neuro2a): 1.1 FC
80 nM FC (mGrn mRNA) (Table 15, Neuro2a): 1.1 FC
160 nM FC (mGrn mRNA) (Table 15, Neuro2a): 1.1 FC

CO-3593: ASO targeting the Grn promoter (− strand) (antisense e[5mC]*eA*eT*eA*eA*e[5mC]*eA*eA*eT*eT*e[5mC]*e[5mC]*eT*e[5mC]*eG*eA*eA*eG*eG*eT)
mGRN mRNA FC (Neuro2a): 1.1 FC

CO-3557: ASO targeting the Grn promoter (− strand) (antisense eT*eG*eT*e[5mC]*eG*eG*eA*eA*eA*eG*e[5mC]*eT*eG*e[5mC]*eA*eG*eG*e[5mC]*e[5mC]*eT)
mGRN mRNA FC (Neuro2a): 1.6 FC

CO-5312: CO-3595 modified to include varying PO/PS internucleotide bonds (antisense e[5mC]*e[5mC]*eTeGeAeAe[5mC]eTeGeT*eA*eT*eG*eG*e[5mC]*eT*eG*eA*e[5mC]*e[5mC])
40 nM FC (mGrn mRNA) (Table 16, Neuro2A): 1.5 FC
80 nM FC (mGrn mRNA) (Table 16, Neuro2A): 1.7 FC
160 nM FC (mGrn mRNA) (Table 16, Neuro2A): 1.8 FC

CO-3576: ASO targeting the Grn promoter (− strand) (antisense eA*eT*eG*eT*eA*e[5mC]*eA*eA*eA*eA*eG*eT*e[5mC]*e[5mC]*e[5mC]*eG*eA*eT*e[5mC]*e[5mC])
mGRN mRNA FC (Neuro2a): 1.2 FC

CO-3564: ASO targeting the Grn promoter (− strand) (antisense eA*e[5mC]*eG*e[5mC]*eA*eG*eG*eT*eA*eG*eG*eA*eG*eG*eA*e[5mC]*e[5mC]*e[5mC]*eT*e[5mC])
mGRN mRNA FC (Neuro2a): 1.1 FC

CO-3573: ASO targeting the Grn promoter (− strand) (antisense eG*eT*e[5mC]*eT*e[5mC]*eA*eT*e[5mC]*eT*e[5mC]*eT*eG*e[5mC]*eA*eA*e[5mC]*eA*e[5mC]*eT*e[5mC])
mGRN mRNA FC (Neuro2a): 1.4 FC

CO-3596: ASO targeting the Grn promoter (− strand) (antisense e[5mC]*eT*e[5mC]*eT*eA*eT*eG*eT*eA*eA*eG*eA*e[5mC]*eT*e[5mC]*e[5mC]*e[5mC]*eA*e[5mC]*eT)
mGRN mRNA FC (Neuro2a): 1.4 FC

CO-4082: ASO based on parent ASOs CO-3544 and CO-3595, different modifications and base walking (antisense eG*eT*eT*e[5mC]*eT*l[5mC]*e[5mC]*e[5mC]*lT*eA*eG*l[5mC]*eT*eG*lT*eG*eT*eA*eG*eT)
40 nM FC (mGrn mRNA) (Table 15, Neuro2a): 1.4 FC
80 nM FC (mGrn mRNA) (Table 15, Neuro2a): 1.6 FC
160 nM FC (mGrn mRNA) (Table 15, Neuro2a): 1.4 FC

CO-5306: CO-3595 modified to include varying PO/PS internucleotide bonds (antisense e[5mC]*e[5mC]*eT*eG*eA*eA*e[5mC]*eT*eGeTeAeTeGeGe[5mC]eTeG*eA*e[5mC]*e[5mC])
40 nM FC (mGrn mRNA) (Table 16, Neuro2A): 1.2 FC
80 nM FC (mGrn mRNA) (Table 16, Neuro2A): 1.0 FC
160 nM FC (mGrn mRNA) (Table 16, Neuro2A): 1.3 FC

CO-3577: ASO targeting the Grn promoter (− strand) (antisense e[5mC]*eT*eG*e[5mC]*e[5mC]*eA*eG*eG*e[5mC]*eG*eT*eG*eA*eA*eG*eA*eG*eA*e[5mC]*eA)
mGRN mRNA FC (Neuro2a): 1.1 FC

CO-5296: CO-3544 modified to include PO/PS bonds (antisense eG*eT*eTe[5mC]eTe[5mC]e[5mC]e[5mC]eTeAeGe[5mC]eTeGeTeG*eT*eA*eG*eT)
40 nM FC (mGrn mRNA) (Table 15, Neuro2a): 1.1 FC
80 nM FC (mGrn mRNA) (Table 15, Neuro2a): 1.1 FC
160 nM FC (mGrn mRNA) (Table 15, Neuro2a): 1.0 FC

CO-3565: ASO targeting the Grn promoter (− strand) (antisense eG*eA*eG*e[5mC]*eT*eG*eA*e[5mC]*e[5mC]*eG*e[5mC]*e[5mC]*eA*eG*eA*eT*eG*e[5mC]*e[5mC]*eT)
mGRN mRNA FC (Neuro2a): 1.6 FC

CO-3579: ASO targeting the Grn promoter (− strand) (antisense eG*eA*e[5mC]*eT*eA*eT*eT*eT*eA*eT*e[5mC]*eT*eT*e[5mC]*eA*e[5mC]*e[5mC]*e[5mC]*eT*e[5mC])
mGRN mRNA FC (Neuro2a): 1.2 FC

CO-3553: ASO targeting the Grn promoter (− strand) (antisense e[5mC]*eA*eA*eG*eT*eG*eT*eT*e[5mC]*eT*e[5mC]*eT*eG*e[5mC]*eG*eG*e[5mC]*eG*eG*e[5mC])
mGRN mRNA FC (Neuro2a): 1.3 FC

CO-3592: ASO targeting the Grn promoter (− strand) (antisense eG*eA*eA*eA*e[5mC]*e[5mC]*e[5mC]*e[5mC]*eT*eT*e[5mC]*e[5mC]*eA*eT*e[5mC]*eT*e[5mC]*eG*eA*e[5mC])
mGRN mRNA FC (Neuro2a): 1.2 FC

Reference: patent US20250243488A1, “METHODS OF MODULATING PROGRANULIN EXPRESSION USING ANTISENSE OLIGONUCLEOTIDES TARGETING REGULATORY RNAS” (Camp4 Therapeutics Corporation, priority 2022, published 2025)
